Laboratory results reported in patent publication US7700592B2, “α2C adrenoreceptor agonists” (Schering Corporation, priority 2005, dated 2010).

The molecules below were run against T1, α2C receptor (Homo sapiens, UniProt P18825) (assay: GTPγS assay, efficacy agonist activity (Emax) for α2C). Conditions: active agonist = efficacy at α2C ≧30% Emax; functionally selective = additionally efficacy at α2A ≦30% Emax (GTPγS assay).
T1 sequence (P18825 1-462): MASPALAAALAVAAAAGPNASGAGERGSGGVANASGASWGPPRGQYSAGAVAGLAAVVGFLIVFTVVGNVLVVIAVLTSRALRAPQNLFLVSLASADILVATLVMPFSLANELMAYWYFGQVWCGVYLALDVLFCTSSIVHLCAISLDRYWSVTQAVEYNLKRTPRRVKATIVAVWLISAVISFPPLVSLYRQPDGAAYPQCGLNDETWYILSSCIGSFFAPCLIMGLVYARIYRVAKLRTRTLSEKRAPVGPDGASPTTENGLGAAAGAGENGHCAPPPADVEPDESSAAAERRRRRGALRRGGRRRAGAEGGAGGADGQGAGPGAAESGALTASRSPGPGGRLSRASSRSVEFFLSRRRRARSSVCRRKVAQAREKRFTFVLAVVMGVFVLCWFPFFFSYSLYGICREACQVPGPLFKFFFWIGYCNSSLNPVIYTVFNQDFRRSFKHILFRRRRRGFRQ
Format: biochemical
Excerpt: For the purposes of this present invention, a compound is defined to be an active agonist of the α2C receptor subtype if the compound's efficacy at the α2C receptor is ≧30% Emax (GTPγS assay). A compound is a functionally selective agonist of the α2C receptor subtype over the α2A receptor subtype if the compound's efficacy at the α2C receptor is ≧30% Emax (GTPγS assay) and its efficacy at the α2A receptor is ≦30% Emax (GTPγS assay).
Efficacy agonist activity values (Emax, GTPγS assay) for α2C were determined by following the general procedure detailed by Umland et al (“Receptor reserve analysis of the human α2c-adrenoceptor using [^35S]GTPγS and cAMP functional assays” European Journal of Pharmacology 2001, 411, 211-221). For the purposes of the present invention, a compound is defined to be an active agonist of the α2C receptor subtype if the compound's efficacy at the α2C receptor is ≧30% Emax (GTPγS assay). A compound is a functionally selective agonist of the α2C receptor subtype over the α2A receptor subtype if the compound's efficacy at the α2C receptor is […] Emax (GTPγS assay) and its efficacy at the α2A receptor is ≦30% Emax (GTPγS assay).

**Q.** Which “Efficacy agonist activity (Emax, GTPγS assay) for α2C: evaluated as active or functionally selective agonist” value does the source give for `c1ccc2c(c1)OCCN2Cc1c[nH]cn1` [Compound 1] here?
**A.** Its value is “active or functionally selective agonists of the α2C receptor subtype”.

**Q.** With `O=[N+]([O-])c1ccc2c(c1)N(Cc1c[nH]cn1)CCO2` [Compound 3D] as the molecule, how does the “Efficacy agonist activity (Emax, GTPγS assay) for α2C: evaluated as active or functionally selective agonist” value read?
**A.** Its value is “active or functionally selective agonists of the α2C receptor subtype”.

**Q.** With `Nc1ccc2c(c1)N(Cc1c[nH]cn1)CCO2` [Compound 3E] as the molecule, how does the “Efficacy agonist activity (Emax, GTPγS assay) for α2C: evaluated as active or functionally selective agonist” value read?
**A.** The value was “active or functionally selective agonists of the α2C receptor subtype”.

**Q.** For `COC(=O)Nc1ccc2c(c1)N(Cc1c[nH]cn1)CCO2` [Compound 3], which “Efficacy agonist activity (Emax, GTPγS assay) for α2C: evaluated as active or functionally selective agonist” value is on record?
**A.** The value was “active or functionally selective agonists of the α2C receptor subtype”.

**Q.** For `CNC(=O)Nc1ccc2c(c1)N(Cc1c[nH]cn1)CCO2` [Compound 5], which “Efficacy agonist activity (Emax, GTPγS assay) for α2C: evaluated as active or functionally selective agonist” value is on record?
**A.** Its value is “active or functionally selective agonists of the α2C receptor subtype”.

**Q.** How did the “Efficacy agonist activity (Emax, GTPγS assay) for α2C: evaluated as active or functionally selective agonist” value turn out when `COC(=O)N(C)c1ccc2c(c1)N(Cc1c[nH]cn1)CCO2` [Compound 6E] was run?
**A.** Its value is “active or functionally selective agonists of the α2C receptor subtype”.

**Q.** Which “Efficacy agonist activity (Emax, GTPγS assay) for α2C: evaluated as active or functionally selective agonist” value does the source give for `CNC(=O)N(C)c1ccc2c(c1)N(Cc1c[nH]cn1)CCO2` [Compound 6] here?
**A.** The value was “active or functionally selective agonists of the α2C receptor subtype”.

**Q.** With `CCNC(=O)N(C)c1ccc2c(c1)N(Cc1c[nH]cn1)CCO2` [Compound 7] as the molecule, how does the “Efficacy agonist activity (Emax, GTPγS assay) for α2C: evaluated as active or functionally selective agonist” value read?
**A.** Its value is “active or functionally selective agonists of the α2C receptor subtype”.

**Q.** For `CCOC(=O)N(C)c1ccc2c(c1)N(Cc1c[nH]cn1)CCO2` [Compound 8], which “Efficacy agonist activity (Emax, GTPγS assay) for α2C: evaluated as active or functionally selective agonist” value is on record?
**A.** Its value is “active or functionally selective agonists of the α2C receptor subtype”.

**Q.** Which “Efficacy agonist activity (Emax, GTPγS assay) for α2C: evaluated as active or functionally selective agonist” value does the source give for `N#Cc1ccc2c(c1)N(Cc1c[nH]cn1)CCO2` [Compound 12] here?
**A.** The value was “active or functionally selective agonists of the α2C receptor subtype”.

**Q.** `N=C(N)c1ccc2c(c1)N(Cc1c[nH]cn1)CCO2` [Compound 13] was tested. Which “Efficacy agonist activity (Emax, GTPγS assay) for α2C: evaluated as active or functionally selective agonist” value did it give?
**A.** Its value is “active or functionally selective agonists of the α2C receptor subtype”.

**Q.** For `CSc1ccc2c(c1)N(Cc1c[nH]cn1)CCO2` [Compound 14B], which “Efficacy agonist activity (Emax, GTPγS assay) for α2C: evaluated as active or functionally selective agonist” value is on record?
**A.** The value was “active or functionally selective agonists of the α2C receptor subtype”.

**Q.** Which “Efficacy agonist activity (Emax, GTPγS assay) for α2C: evaluated as active or functionally selective agonist” value does the source give for `CS(=O)(=O)c1ccc2c(c1)N(Cc1c[nH]cn1)CCO2` [Compound 14] here?
**A.** The value was “active or functionally selective agonists of the α2C receptor subtype”.

**Q.** `c1c[nH]c(-c2ccc3c(c2)N(Cc2c[nH]cn2)CCO3)c1` [Compound 15] was tested. Which “Efficacy agonist activity (Emax, GTPγS assay) for α2C: evaluated as active or functionally selective agonist” value did it give?
**A.** The value was “active or functionally selective agonists of the α2C receptor subtype”.

**Q.** `O=[N+]([O-])c1cc(F)c2c(c1)N(Cc1c[nH]cn1)CCO2` [Compound 19D] was tested. Which “Efficacy agonist activity (Emax, GTPγS assay) for α2C: evaluated as active or functionally selective agonist” value did it give?
**A.** The value was “active or functionally selective agonists of the α2C receptor subtype”.

**Q.** For `COC(=O)Nc1cc(F)c2c(c1)N(Cc1c[nH]cn1)CCO2` [Compound 19], which “Efficacy agonist activity (Emax, GTPγS assay) for α2C: evaluated as active or functionally selective agonist” value is on record?
**A.** Its value is “active or functionally selective agonists of the α2C receptor subtype”.

**Q.** Which “Efficacy agonist activity (Emax, GTPγS assay) for α2C: evaluated as active or functionally selective agonist” value does the source give for `COC(=O)Nc1cc(Cl)c2c(c1)N(Cc1c[nH]cn1)CCO2` [Compound 20] here?
**A.** Its value is “active or functionally selective agonists of the α2C receptor subtype”.

**Q.** How did the “Efficacy agonist activity (Emax, GTPγS assay) for α2C: evaluated as active or functionally selective agonist” value turn out when `COC(=O)Nc1cc2c(cc1F)OCCN2Cc1c[nH]cn1` [Compound 21] was run?
**A.** The value was “active or functionally selective agonists of the α2C receptor subtype”.

**Q.** `O=[N+]([O-])c1ccc2c(n1)N(Cc1c[nH]cn1)CCO2` [Compound 22] was tested. Which “Efficacy agonist activity (Emax, GTPγS assay) for α2C: evaluated as active or functionally selective agonist” value did it give?
**A.** Its value is “active or functionally selective agonists of the α2C receptor subtype”.

**Q.** With `Nc1ccc2c(c1)N(Cc1c[nH]cn1)CCS2` [Compound 24D] as the molecule, how does the “Efficacy agonist activity (Emax, GTPγS assay) for α2C: evaluated as active or functionally selective agonist” value read?
**A.** Its value is “active or functionally selective agonists of the α2C receptor subtype”.
